Data from BigSolDB 2.1.

CCCCOc1ccc(C(=O)CCN2CCCCC2)cc1.Cl
solubility (mole fraction)
Conditions	278.15 K	283.15 K	288.15 K	293.15 K	298.15 K	303.15 K	308.15 K	313.15 K	318.15 K	323.15 K
in DMF	0.0201	0.0227	0.0256	0.0291	0.0328	0.0371	0.0421	0.0475	0.0539	0.0608
in THF	0.00088	0.00098	0.00108	0.00119	0.00133	0.00147	0.00162	0.0018	0.002	0.00221
in acetone	0.0121	0.0148	0.018	0.0218	0.0263	0.0321	0.0389	0.0474	0.0574	0.0695
in ethanol	0.062	0.07	0.0786	0.0882	0.0987	0.111	0.124	0.14	0.157	0.175
in ethyl acetate	0.00638	0.00791	0.00983	0.012	0.0146	0.0181	0.0223	0.0276	0.0338	0.0415
in methanol	0.0804	0.0905	0.103	0.116	0.131	0.147	0.166	0.188	0.212	0.238
in n-hexane	0.00084	0.00095	0.00108	0.00122	0.00137	0.00155	0.00175	0.00198	0.00224	0.00253
in water	0.0296	0.0339	0.039	0.045	0.0514	0.059	0.0674	0.0774	0.0888	0.102
